Experimental data from ChEMBL document CHEMBL1201862, “PubChem BioAssay data set” (2004).
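A five-concentration, 48-hour dose response in 96-well plates underlies each endpoint, interpolated linearly between surrounding concentrations. The concentration for 50% growth inhibition is given as GI50.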 Active and inactive are the calls of the source. Cut-off read from the data, not from the text of the source: active = GI50 up to about 1.1 µM and inactive = higher.

Legend:
Assay in all cases: inhibition of tumour cell growth, NCI panel, 48 h
[1] = tested on: A498
[2] = tested on: CAKI-1
[3] = tested on: COLO 205
[4] = tested on: HCC 2998
[5] = tested on: HCT-116
[6] = tested on: HOP-62
[7] = tested on: LOX IMVI
[8] = tested on: MDA-N
[9] = tested on: Malme-3M
[10] = tested on: NCI-H226
[11] = tested on: NCI/ADR-RES
[12] = tested on: OVCAR-5
[13] = tested on: OVCAR-8
[14] = tested on: PC-3
[15] = tested on: SK-MEL-2
[16] = tested on: SNB-75
[17] = tested on: SW-620
[18] = tested on: UACC-62

Measured: GI50

CCCCCCCC/C=C\CCCCCCC(F)C(=O)O (stereo not given)
inactive: [1] > 12.5 µM | [2] > 12.5 µM | [3] > 12.5 µM | [4] > 12.5 µM | [5] > 12.5 µM | [6] > 12.5 µM | [7] > 12.5 µM | [8] > 12.5 µM | [9] > 12.5 µM | [10] > 12.5 µM | [11] > 12.5 µM | [12] > 12.5 µM | [13] > 12.5 µM | [14] > 12.5 µM | [15] > 12.5 µM | [16] > 12.5 µM | [17] > 12.5 µM

COC1(OC)CC(CO)(CNc2nc(N)nc(Cl)c2/C=N\O)C1
inactive: [1] 18.5 µM | [2] 57.4 µM | [3] 38.6 µM | [4] > 100 µM | [5] 50.4 µM | [6] 23.2 µM | [7] 22.7 µM | [8] 63.2 µM | [9] 20.8 µM | [10] 29.6 µM | [11] 46 µM | [12] 20.7 µM | [13] 54.7 µM | [14] 55.5 µM | [16] 48.8 µM | [17] > 100 µM

O=C(Nc1nc(C23CC4CC(CC(C4)C2)C3)cs1)c1c(O)c2ccccc2[nH]c1=O
inactive: [1] > 100 µM | [2] > 100 µM | [3] > 100 µM | [4] > 100 µM | [5] > 100 µM | [6] > 100 µM | [7] > 100 µM | [8] > 100 µM | [9] > 100 µM | [10] > 100 µM | [11] > 100 µM | [12] > 100 µM | [13] > 100 µM | [14] > 100 µM | [16] > 10 µM | [17] > 100 µM

CCN1CC2(COC)C(O)CC(OC)C34C5CC6(O)C(OC)C=C(C5C6OC(=O)c5ccc(OC)c(OC)c5)C(C(OC)C23)C14 (stereo not given)
inactive: [1] > 7.5 µM | [2] > 7.5 µM | [3] > 7.5 µM | [4] > 7.5 µM | [5] > 7.5 µM | [7] > 7.5 µM | [8] > 7.5 µM | [9] > 7.5 µM | [10] > 7.5 µM | [11] > 7.5 µM | [12] > 7.5 µM | [13] > 7.5 µM | [14] > 7.5 µM | [15] > 7.5 µM | [16] 4.51 µM | [17] > 7.5 µM | [18] > 7.5 µM

O=C(CN1C(=O)c2ccccc2C1=O)C(O)CN1C(=O)c2ccccc2C1=O (stereo not given)
inactive: [1] 87.1 µM | [2] > 100 µM | [3] > 100 µM | [4] > 100 µM | [5] > 100 µM | [6] 17.9 µM | [7] 92.3 µM | [8] > 100 µM | [10] 73.8 µM | [11] > 100 µM | [12] > 100 µM | [13] 46.5 µM | [14] > 100 µM | [15] > 100 µM | [16] 16 µM | [17] > 100 µM | [18] > 100 µM

CC[C@@]1(C)CCC2c3ccc(O)cc3CC[C@H]2C1C (stereo not given in full)
inactive: [1] 19.6 µM | [2] 21.2 µM | [3] 17 µM | [4] 13.7 µM | [5] 17.7 µM | [6] 18.7 µM | [7] 17 µM | [8] 13.1 µM | [9] 16.6 µM | [11] 18.8 µM | [12] 18.8 µM | [13] 17.7 µM | [14] 19.8 µM | [15] 18.6 µM | [16] 19.9 µM | [17] 17 µM | [18] 14.7 µM
